# Experimental data from article PMC10041525, “New Dual Inhibitors of Bacterial Topoisomerases with Broad-Spectrum Antibacterial Activity and In Vivo Efficacy against Vancomycin-Intermediate Staphylococcus aureus” (Journal of Medicinal Chemistry, 2023).
# Read-outs that look alike come from different tables or passages of the source.
# Legend:
# [1] = mitochondrial toxicity glu/gal assay; assay type: cell-based; details: human, read-out: cell viability (ATP), % of control
# Description: (§1) HepG2 cells were seeded in two 96-well plates at a density of 50,000 cells per well in 100 μL of growth medium. For the first plate, the growth medium contained glucose and for the second plate, it contained galactose. Cells were incubated overnight in a 5% CO2 atmosphere at 37 °C and allowed to attach onto the wells. […] The medium contained positive control (Rotenone). […] Luminescence was measured with Tecan Infinite 200 pro luminometer, and the values from each well treated with compound were compared to the values given by the negative control (medium only). The inhibition of mitochondrial function was determined by comparing ATP levels in galactose and glucose exposed cells. […]
# HepG2 cells = assay: mitochondrial toxicity glu/gal assay; assay type: cell-based; details: human
# Description: as §1
# [2] = target: T1, sodium Nav1.5 ion channel (Homo sapiens, UniProt Q14524); assay: patch-clamp on transfected CHO cells; assay type: cell-based
# T1 construct: expressed in transfected cells; host or cells: CHO cells (stably transfected)
# Description: (§2) hERG and NaV1.5 inhibition was measured with the patch-clamp method on stably transfected CHO cells according to previously described procedures.[34] […] The normalized hERG/NaV1.5 current is reported as mean ± standard error of the mean (SEM, N = 5–6).
# [3] = target: T2, hERG potassium ion channel (Homo sapiens, UniProt Q12809); assay: patch-clamp on transfected CHO cells; assay type: cell-based
# T2 construct: expressed in transfected cells; host or cells: CHO cells (stably transfected)
# Description: as §2
# [4] = target: T3, human DNA topoisomerase IIα (Homo sapiens, UniProt P11388); assay: DNA relaxation assay; assay type: biochemical
# T3 construct: purchased Inspiralis
# Description: Seven concentrations of the inhibitors were used to determine IC50 values which were then calculated with GraphPad Prism 6.0 software. Three independent measurements were performed to determine IC50 values, and mean values are reported as the final result.
# in vitro [5] = details: pH 7.4; for Clint (pred. in vivo) / half-life at 1 h, 1 µM: microsomes
# Description: Liver microsomal fractions were purchased from XenoTech LLC, (KS, USA). […] To initiate the reaction, 1 mM NADPH was added. Samples were taken at 0, 5, 10, 20, 40, and 60 min. To terminate the reaction, cold acetonitrile with warfarin as an internal standard was added. LC–MS/MS was used to analyze the samples and determine the amount of remaining parent compound. The LC–MS/MS method was the same as described above in Chapter LogD Determination.
# in vitro [6] = details: mouse
# Description: The assay was performed in cryopreserved mouse hepatocytes. First, the vials were thawed, the suspension added to “thawing media” and centrifuged to pellet the hepatocytes. The cell pellet was resuspended in Williams medium E (Invitrogen A1217601). […] A mixture of midazolam, diclofenac, and bufuralol at 1 μM was used as a positive control. The incubation was carried out on a heater-shaker at 37 °C, in a 24-well Picoplate (round bottom, PerkinElmer), with total incubation volume of 700 μL. […] The plate was incubated at 37 °C for 60 s. A zero sample was taken by removing 100 μL to a 96-well plate, and the reaction was quenched by adding 100 μL of acetonitrile with 50 nM warfarin as the internal standard. […] The LC–MS/MS method was the same as described above in Chapter LogD Determination.
# [7] = tested on: E. coli ATCC 25922, CH3130 ΔtolC, CGSC 5163 D22; assay: MIC, wild-type vs efflux-defective and lps mutant; assay type: cell-based; details: Escherichia coli
# A. baumannii topo IV = A. baumannii topo IV (Acinetobacter baumannii, UniProt A0ABX6CMT0); assay: gel-based decatenation assay
# Description: In all experiments, the activity of the
# (§3) enzymes was determined prior to the testing of the compound and 1 unit (U) was defined as the
# (§4) amount of enzyme required to just fully supercoil or decatenate the substrate. This amount of
# (§5) enzyme was initially used in determination of control inhibitor activity. These experiments were
# (§6) performed in duplicate. […] The final DMSO
# (§7) concentration was 1% for all assays. All measurements were performed in quadruplicates. The
# (§8) condition for each reaction were as follows:
# − S. aureus gyrase supercoiling assay
# (§9) 1 U of S. aureus gyrase was incubated with 0.5 µg of relaxed pBR322 DNA in a 30 µL reaction at
# (§10) magnesium acetate, 10 mM DTT, 2 mM ATP, 500 mM potassium glutamate and 0.05 mg/mL
# − S. aureus topo IV decatenation assay
# (§11) 1 U of S. aureus topo IV was incubated with 20 µg kDNA in a 30 µL reaction at 37 °C for 30
# (§12) mM ATP, 350 mM potassium glutamate and 0.05 mg/mL albumin.
# (§13) − A. baumannii gyrase supercoiling assay
# (§14) 1 U of A. baumannii gyrase was incubated with 0.5 µg of relaxed pBR322 DNA in a 30 µL reaction
# (§15) blue), before being loaded on a 1.0% TAE gel run at 80V for 2 hours. Bands were visualised by
# (§16) ethidium bromide staining for 20 minutes and destaining for 20 minutes. Gels were scanned using
# (§17) documentation equipment (GeneGenius, Syngene, Cambridge, UK) and % inhibition levels were
# (§18) measured by determining the relative fluorescence of the supercoiled band using gel scanning
# software. […]
# physchem = details: pH 7.4
# Description: 0.5 mL of 67 mM phosphate
# in a rotational shaker (400 rpm) at 23 °C. After the incubation an aliquot of 200 µL was
# 1 µL of the supernatant was transferred to 96-well plate in triplicate wells, diluted 100×
# with acetonitrile/H2O (60/40) containing 50 nM warfarin as internal standard and analyzed
# performed comparing to a separately constructed standard series (10 nM to 1000 nM).
# shaker (900 rpm) at 37 °C. After the incubation an aliquot of 200 µL was transferred to a
# conical glass insert and centrifuged for 30 min at 10 000 × g at 37 °C. The supernatant was
# transferred to a new HPLC vial appropriately diluted (100×, 1000×, 5000×) with
# acetonitrile/H2O (50/50) containing 50 nM warfarin as internal standard and analyzed by
# performed comparing to a separately constructed standard curve between 3 nM to 20000
# [8] = tested on: A. baumannii BM4652 and NMI clinical isolates; assay: MIC, wild-type, efflux-defective and MDR clinical isolates; assay type: cell-based; details: Acinetobacter baumannii
# S. aureus DNA gyrase = S. aureus DNA gyrase (Staphylococcus aureus, UniProt P0A0K8); assay: gel-based supercoiling assay
# Description: In all experiments, the activity of the
# as §3, §4, §5, §6, §7, §8
# − S. aureus gyrase supercoiling assay
# as §9, §10
# − S. aureus topo IV decatenation assay
# as §11, §12, §13, §14, §15, §16, §17, §18
# software. […]
# T2 sequence (Q12809 whole entry): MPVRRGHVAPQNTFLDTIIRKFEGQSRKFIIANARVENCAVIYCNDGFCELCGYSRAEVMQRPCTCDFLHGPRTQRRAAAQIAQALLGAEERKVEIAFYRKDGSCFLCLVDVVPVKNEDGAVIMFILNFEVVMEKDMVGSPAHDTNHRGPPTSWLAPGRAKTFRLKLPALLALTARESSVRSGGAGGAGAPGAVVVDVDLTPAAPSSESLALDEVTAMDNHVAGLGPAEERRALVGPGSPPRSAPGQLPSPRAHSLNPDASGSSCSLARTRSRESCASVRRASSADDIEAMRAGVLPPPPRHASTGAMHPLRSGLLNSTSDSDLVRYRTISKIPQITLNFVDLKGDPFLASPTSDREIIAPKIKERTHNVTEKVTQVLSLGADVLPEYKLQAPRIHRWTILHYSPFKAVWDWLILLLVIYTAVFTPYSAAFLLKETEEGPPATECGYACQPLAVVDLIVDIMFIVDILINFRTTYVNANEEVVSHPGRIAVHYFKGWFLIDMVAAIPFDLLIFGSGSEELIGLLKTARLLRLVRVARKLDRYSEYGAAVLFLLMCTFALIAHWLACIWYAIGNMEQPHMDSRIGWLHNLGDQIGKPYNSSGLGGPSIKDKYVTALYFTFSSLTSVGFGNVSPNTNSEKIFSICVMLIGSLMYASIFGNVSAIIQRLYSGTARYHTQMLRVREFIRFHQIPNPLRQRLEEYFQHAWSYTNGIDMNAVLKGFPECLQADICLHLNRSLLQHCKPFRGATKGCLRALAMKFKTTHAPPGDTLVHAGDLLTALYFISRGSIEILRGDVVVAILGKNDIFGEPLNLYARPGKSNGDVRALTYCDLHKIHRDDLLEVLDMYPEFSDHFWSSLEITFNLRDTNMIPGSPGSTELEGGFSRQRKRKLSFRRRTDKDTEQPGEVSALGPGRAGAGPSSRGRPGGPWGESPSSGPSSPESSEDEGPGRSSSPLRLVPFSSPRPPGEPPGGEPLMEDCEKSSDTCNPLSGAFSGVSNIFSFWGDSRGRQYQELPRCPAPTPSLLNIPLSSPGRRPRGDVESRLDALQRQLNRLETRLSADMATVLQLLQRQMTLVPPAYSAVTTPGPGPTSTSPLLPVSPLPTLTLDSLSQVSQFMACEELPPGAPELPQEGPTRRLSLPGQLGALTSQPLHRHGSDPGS
# T1 sequence (Q14524 whole entry): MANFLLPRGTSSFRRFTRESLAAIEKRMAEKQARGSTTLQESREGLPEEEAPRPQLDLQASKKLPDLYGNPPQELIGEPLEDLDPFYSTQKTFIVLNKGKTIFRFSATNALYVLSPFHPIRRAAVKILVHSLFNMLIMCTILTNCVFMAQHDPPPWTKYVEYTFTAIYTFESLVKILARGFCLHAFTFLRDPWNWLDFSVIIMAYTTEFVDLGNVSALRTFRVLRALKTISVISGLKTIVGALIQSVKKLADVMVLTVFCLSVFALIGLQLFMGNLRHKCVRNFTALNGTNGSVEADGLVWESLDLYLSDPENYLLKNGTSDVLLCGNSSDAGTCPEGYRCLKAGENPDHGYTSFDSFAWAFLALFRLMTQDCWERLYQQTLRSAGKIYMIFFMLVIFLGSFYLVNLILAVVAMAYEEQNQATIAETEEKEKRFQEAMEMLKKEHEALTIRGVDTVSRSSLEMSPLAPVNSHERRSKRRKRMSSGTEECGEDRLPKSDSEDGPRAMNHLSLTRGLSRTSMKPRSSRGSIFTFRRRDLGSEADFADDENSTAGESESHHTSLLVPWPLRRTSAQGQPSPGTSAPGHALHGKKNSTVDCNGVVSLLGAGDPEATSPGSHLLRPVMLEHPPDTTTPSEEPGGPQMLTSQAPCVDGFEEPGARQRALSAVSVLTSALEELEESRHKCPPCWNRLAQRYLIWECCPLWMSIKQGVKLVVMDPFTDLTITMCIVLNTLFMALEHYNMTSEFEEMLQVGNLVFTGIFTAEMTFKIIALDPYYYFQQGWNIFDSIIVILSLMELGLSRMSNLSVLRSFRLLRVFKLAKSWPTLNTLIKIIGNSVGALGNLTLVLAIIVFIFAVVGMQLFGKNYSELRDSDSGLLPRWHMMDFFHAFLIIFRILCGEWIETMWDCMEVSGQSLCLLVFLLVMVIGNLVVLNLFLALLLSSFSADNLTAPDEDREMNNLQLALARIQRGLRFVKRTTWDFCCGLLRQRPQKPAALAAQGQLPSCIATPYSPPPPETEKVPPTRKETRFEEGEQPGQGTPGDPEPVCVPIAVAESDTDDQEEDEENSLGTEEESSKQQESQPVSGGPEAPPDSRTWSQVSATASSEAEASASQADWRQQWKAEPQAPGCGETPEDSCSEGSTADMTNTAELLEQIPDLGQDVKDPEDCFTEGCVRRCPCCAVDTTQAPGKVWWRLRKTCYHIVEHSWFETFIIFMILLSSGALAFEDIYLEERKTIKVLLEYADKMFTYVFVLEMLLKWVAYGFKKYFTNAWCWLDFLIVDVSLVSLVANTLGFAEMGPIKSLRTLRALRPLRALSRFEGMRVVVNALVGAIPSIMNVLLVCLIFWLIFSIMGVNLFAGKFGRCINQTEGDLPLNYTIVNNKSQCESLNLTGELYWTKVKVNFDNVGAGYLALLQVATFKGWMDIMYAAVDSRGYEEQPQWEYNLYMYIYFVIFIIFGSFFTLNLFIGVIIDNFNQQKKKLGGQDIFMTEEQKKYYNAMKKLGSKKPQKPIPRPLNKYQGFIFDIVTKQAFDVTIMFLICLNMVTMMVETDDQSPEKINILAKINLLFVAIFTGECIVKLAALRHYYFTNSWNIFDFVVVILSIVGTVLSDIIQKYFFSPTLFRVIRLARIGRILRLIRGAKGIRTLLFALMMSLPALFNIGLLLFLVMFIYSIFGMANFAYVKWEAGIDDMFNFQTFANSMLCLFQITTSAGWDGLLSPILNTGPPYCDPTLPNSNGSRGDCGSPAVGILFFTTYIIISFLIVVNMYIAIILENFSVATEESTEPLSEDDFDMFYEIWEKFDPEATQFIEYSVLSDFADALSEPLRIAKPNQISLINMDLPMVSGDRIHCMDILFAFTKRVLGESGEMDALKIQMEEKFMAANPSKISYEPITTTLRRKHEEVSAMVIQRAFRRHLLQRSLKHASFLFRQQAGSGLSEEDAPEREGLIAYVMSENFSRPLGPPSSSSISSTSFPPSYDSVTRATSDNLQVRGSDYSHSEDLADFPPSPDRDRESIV
# T3 sequence (P11388 whole entry): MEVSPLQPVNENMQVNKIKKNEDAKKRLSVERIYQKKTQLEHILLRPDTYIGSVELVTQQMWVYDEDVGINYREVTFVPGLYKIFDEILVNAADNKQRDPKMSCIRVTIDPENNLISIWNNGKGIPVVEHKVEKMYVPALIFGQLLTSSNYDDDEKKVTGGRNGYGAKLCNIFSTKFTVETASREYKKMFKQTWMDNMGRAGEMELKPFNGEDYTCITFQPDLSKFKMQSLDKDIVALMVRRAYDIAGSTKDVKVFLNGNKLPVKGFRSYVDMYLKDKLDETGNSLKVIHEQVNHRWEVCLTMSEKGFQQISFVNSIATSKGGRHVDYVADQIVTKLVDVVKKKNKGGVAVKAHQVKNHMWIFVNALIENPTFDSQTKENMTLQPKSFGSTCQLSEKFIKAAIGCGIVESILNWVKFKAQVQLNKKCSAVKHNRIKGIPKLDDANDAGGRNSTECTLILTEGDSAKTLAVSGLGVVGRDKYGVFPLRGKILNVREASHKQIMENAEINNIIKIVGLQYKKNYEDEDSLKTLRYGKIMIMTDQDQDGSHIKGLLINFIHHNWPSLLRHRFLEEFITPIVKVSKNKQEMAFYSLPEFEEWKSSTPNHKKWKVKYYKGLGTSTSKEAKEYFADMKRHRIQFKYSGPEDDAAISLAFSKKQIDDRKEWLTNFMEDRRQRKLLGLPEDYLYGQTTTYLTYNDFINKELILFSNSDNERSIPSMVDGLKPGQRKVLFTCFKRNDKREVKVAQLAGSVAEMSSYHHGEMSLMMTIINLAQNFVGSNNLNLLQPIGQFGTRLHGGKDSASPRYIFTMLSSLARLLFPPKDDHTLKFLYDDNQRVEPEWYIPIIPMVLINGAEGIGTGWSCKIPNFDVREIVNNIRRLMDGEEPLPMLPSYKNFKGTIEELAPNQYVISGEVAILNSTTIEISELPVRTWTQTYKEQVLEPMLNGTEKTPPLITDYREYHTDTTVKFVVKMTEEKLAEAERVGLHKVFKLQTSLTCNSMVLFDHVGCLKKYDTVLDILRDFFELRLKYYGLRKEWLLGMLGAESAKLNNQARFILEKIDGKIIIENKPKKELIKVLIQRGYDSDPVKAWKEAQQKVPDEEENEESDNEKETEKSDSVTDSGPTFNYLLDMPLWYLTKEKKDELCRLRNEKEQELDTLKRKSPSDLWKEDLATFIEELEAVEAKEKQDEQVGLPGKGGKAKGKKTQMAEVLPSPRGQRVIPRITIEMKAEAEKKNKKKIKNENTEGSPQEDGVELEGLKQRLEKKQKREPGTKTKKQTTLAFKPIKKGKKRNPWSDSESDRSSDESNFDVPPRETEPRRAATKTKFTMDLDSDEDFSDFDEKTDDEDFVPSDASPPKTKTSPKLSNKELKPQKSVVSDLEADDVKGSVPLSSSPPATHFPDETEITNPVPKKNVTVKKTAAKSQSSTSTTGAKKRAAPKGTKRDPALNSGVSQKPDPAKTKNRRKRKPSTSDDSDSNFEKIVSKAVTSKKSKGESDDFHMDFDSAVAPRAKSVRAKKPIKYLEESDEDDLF
compound,measurement,setting,value
"Cc1[nH]c(C(=O)Nc2nc3c(N4CCOCC4)cc(C(=O)O)cc3s2)c(Cl)c1Cl [7a, 2-(3,4-Dichloro-5-methyl-1H-pyrrole-2-carboxamido)-4-morpholinobenzo[d]thiazole-6-carboxylic Acid]",viability at 10 µM,[1]; galactose,98%
same,viability at 50 µM,[1]; galactose,98%
same,viability at 100 µM,[1]; galactose,97%
same,viability at 300 µM,[1]; galactose,98%
same,viability at 600 µM,[1]; galactose,94%
same,viability at 1000 µM,[1]; galactose,83%
same,viability at 10 µM,[1]; glucose,109%
same,viability at 50 µM,[1]; glucose,107%
same,viability at 100 µM,[1]; glucose,105%
same,viability at 300 µM,[1]; glucose,99%
same,viability at 600 µM,[1]; glucose,95%
same,viability at 1000 µM,[1]; glucose,79%
same,mitotoxic concentration (not mitotoxic up to),HepG2 cells,> 1000 µM
same,inhibition of Nav1.5,[2]; 10 µM,no significant inhibition
same,Nav1.5 current fraction (normalized to neg. control),"[2]; 10 µM 7a, mean ± SEM",0.97 ± 0.03
same,inhibition of hERG,[3]; 50 µM,no significant inhibition
same,hERG current fraction (normalized to neg. control),"[3]; 50 µM 7a, mean ± SEM",1.01 ± 0.02
same,IC50,[4],17 µM
same,Clint (pred. in vivo),in vitro [5]; human,630 mL/min
same,"half-life at 1 h, 1 µM",in vitro [5]; human,1.72 h
same,ClH (pred.),in vitro [5]; human,14 mL/min
same,Epred,in vitro [5]; human,0.01
same,Clint (pred. in vivo),in vitro [5]; mouse,1.3 mL/min
same,"half-life at 1 h, 1 µM",in vitro [5]; mouse,1.45 h
same,ClH (pred.),in vitro [5]; mouse,0.03 mL/min
same,Epred,in vitro [5]; mouse,0.01
same,ClH (pred.),in vitro [6],0.05 mL/min
same,Clint (pred. in vivo),in vitro [6]; hepatocytes,2.1 mL/min
same,"half-life at 1.5 h, 1 µM",in vitro [6]; hepatocytes,2.67 h
same,"hepatocyte CLint at 1.5 h, 1 µM",in vitro [6]; hepatocytes,9 µL/min/1e6 cells
same,MIC,"[7]; ATCC25922, E. coli ATCC 25922",8 mg/L
same,MIC,"[7]; ATCC25922, E. coli CGSC 5163 D22, lps mutant, hypersensitive",2 mg/L
same,MIC,"[7]; ATCC25922, E. coli CH3130 ΔtolC, efflux-defective",< 0.125 mg/L
same,IC50,A. baumannii topo IV,0.12 ± 0.00834 µM
same,solubility thermodynamic at 24 h,physchem,168 µM
same,MIC,"[8]; A. baumannii BM4652, efflux-defective",< 0.125 mg/L
same,MIC,"[8]; A. baumannii NMI 2692/14, clinical MDR",1 mg/L
same,MIC,"[8]; A. baumannii NMI 2699/14, clinical MDR",1 mg/L
same,MIC,"[8]; A. baumannii NMI 2704/14, clinical MDR",1 mg/L
same,IC50,S. aureus DNA gyrase,0.00122 ± 4e-05 µM
